Test results from article PMC10350184, “Nullomer peptide increases immune cell infiltration and reduces tumor metabolism in triple negative breast cancer mouse model” (Research Square, 2023).

System: 4T1.2-Luc TNBC tumors
Assay: 4T1.2-Luc orthotopic TNBC mouse model, unilateral tumor: tumor volume, tumor weight and body weight
Type: in vivo, female BALB/c mice
Settings: trehalose IP
From the text: The model was created by orthotopically injecting 4T1.2-Luc cells in the 4th mammary fat pad of Balb/c mice, with 1×10^5 cells per mouse. The cell line was developed by Dr. Cheryl Jorcyk and it expresses luciferase gene which serves as a luminescent indicator of gene expression or tumorigenesis, making the tumor cell traceable in vivo. Treatment started after the formation of palpable tumors and was detected by in vivo BLI (IVIS, Perkin Elmer) followed by randomization of the animals per group. For evaluating the effect of the peptides on this model, we carried out two separate studies. The first pilot study involved a set of 4 mice per group with bilateral mammary tumors, which received six IP administration of PBS, 9S1R-NulloPT drug at 50 mg/kg, 100 mg/Kg body weight or Trehalose, over a period of 2 weeks. The present study includes a set of 7–9 mice per group with unilateral tumors including the same groups as previous, but received a total of eight injections per mouse over a period of 2 weeks. […]
Mice were anesthetized by isoflurane followed by measurement of the tumor length and width using a manual Vernier caliper. This was performed before every drug administration and the tumor volume was calculated using the formula (length × width^2)/2. Body weights were also measured before every dose of the drug.

SMILES: OC[C@H]1O[C@H](O[C@H]2O[C@H](CO)[C@@H](O)[C@H](O)[C@H]2O)[C@H](O)[C@@H](O)[C@@H]1O [Trehalose]
- post mortem tumor size, trehalose only group: no significant change
